Where two headings read alike, the source gives them in different places.
Columns and labels:
[1] = target: RRE RNA hairpin (internal loop IIB); experiment: SPR analysis of interaction with RRE RNA hairpin; assay type: binding, HIV-1
RREc hairpin = experiment: SPR binding specificity relative to control RREc hairpin; set-up: species or system HIV-1
Procedure: (§1) The interaction of these biphenyl and terphenyl compounds with the RRE RNA hairpin (SEQ. ID. No 1) was analysed using surface plasmon resonance (SPR) experiments(19). In addition to the RRE, two control RREc (SEQ. ID. No 2) and TARc (SEQ. ID. No 3) hairpins were also immobilised on the chips. In the RREc hairpin the internal loop forming the Rev high-affinity binding site is replaced with a G:G opposition, whereas in the TARc hairpin this loop is substituted with the HIV-1 Tat-binding UCU bulge(20). In this way, applicants could simultaneously assess the interaction of each ligand with RRE, RREc and TARc, obtaining important information about binding selectivity. In addition, the SPR methodology allows deduction of binding stoichiometries, which are likewise related to the specificity of the interaction between a ligand and a given RNA species. These are key considerations in the nucleic acid recognition field(4, 5, 14).
(§2) The Surface Plasmon Resonance (SPR) experiments were carried out at 25° C. with a Biacore T100 optical biosensor system, 4-channel streptavidin-derivatized Series S SA chips, and either 10 mM MES (pH 6.25), 150 mM NaCl, 1 mM EDTA and 0.005% P20 or 10 mM HEPES pH 7.4, 150 mM NaCl, 3 mM EDTA and 0.005% P20 aqueous solutions as mobile phases. After immobilizing approximately 300 response units (RU) of the RRE, RREc and TARc RNA hairpins on the chips, the compounds were injected during 10-minute periods at a flow rate of 20 μL/min and at concentrations generally ranging from 0.01 μM to 100.0 μM, and then allowed to dissociate for 10 more minutes. The RNA surfaces were regenerated with solutions containing 0.5 to 1 M NaCl and 10 to 100 mM NaOH, depending on the ligand.
(§3) RNA-ligand SPR equilibrium dissociation constants (Kd) were determined by fitting the sensorgrams to one-site or two-site equations:
(§4) [formula] [formula] where RU is the response in the steady-state region of the sensorgrams, C is the concentration of free compound in equilibrium with the complex, RUmax is the maximum response and RI is an offset term accounting for the bulk refractive index contribution of the sample. In these models, Kd, RUmax and RI are adjustable parameters, and the stoichiometry of each binding site was determined by comparing the fitted RUmax values with the predicted ones, calculated from the molecular weights of RNA and compound and the amount of RNA in the flow cell(32). The two-site equation was only utilized if it provided a clear curve-fitting improvement over the one-site model. The specificity of the RRE interaction was quantified by calculating the Kd(RREc)/Kd(RRE) and Kd(RRE)/Kd(TARc) ratios. All SPR experiments were double-referenced(33).

TARc hairpin = experiment: SPR binding specificity relative to control TARc hairpin; set-up: species or system HIV-1
Procedure: as §1, §2, §3
as §4, with “The specificity of the RRE interaction was quantified by calculating the Kd(RREc)/Kd(RRE) and Kd(RRE)/Kd(TARc) ratios.” left out

[2] = target: RRE-Rev34-50 interaction (RRE hairpin and frevp); experiment: Fluorescence polarization displacement assay of the RRE-Rev34-50 interaction; assay type: binding, HIV-1
HIV-1 (NL4.3-Ren) = experiment: microbe, parasite or virus in culture; assay type: cell-based; settings: for EC50: read-out: EC50 (NL4.3-Ren)
[3] = Cellular viability (CellTiter Glo); assay type: cell-based; settings: human, MT-2 cells; 48 h, CellTiter Glo; read-out: CC50 (celular viability)
HIV-1 LTR promoter = assay type: cell-based
[4] = system: Escherichia coli (ATCC 53868); experiment: Disk diffusion assay (Kirby-Bauer), E. coli; assay type: cell-based; settings: disk potency 20 μg, 8 mm discs, 16-18 hours at 37° C.
[5] = system: Staphilococcus aureus (ATCC 35556); experiment: Disk diffusion assay (Kirby-Bauer), S. aureus; assay type: cell-based; settings: disk potency 20 μg, 8 mm discs, 16-18 hours at 37° C.
MT-2 cells = experiment: Cellular viability (CellTiter Glo); assay type: cell-based
[6] = system: full-length competent HIV-1 clone; experiment: microbe, parasite or virus in culture; assay type: cell-based; settings: Human immunodeficiency virus 1, MT2, 48 h, read-out: EC50 post-integration
RRE-Rev = experiment: microbe, parasite or virus in culture; assay type: cell-based, HIV-1
RRE hairpin = experiment: Two-dimensional NMR (TOCSY) titration of the RRE hairpin; assay type: binding, HIV-1; settings: D2O, pH 6.0
[7] = read-out: IC50 (RRE-Rev 50% inhibitory concentration), fluorescence polarization, 25° C., 60 nM RRE and 10 nM frevp
[8] = Human immunodeficiency virus 1, 48 h
[9] = fluorescence anisotropy, read-out: IC50 (RRE-Rev34-50 inhibition)
[10] = 25° C., pH 7.4, high affinity site when two-site model, footnote d compounds: ligand range 0.1-25 μM, read-out: Kd(RRE)

Structure (SMILES)	IC50 [2, 7]	EC50 (HIV-1 (NL4.3-Ren); [8])	CC50 at 48 h [3]	inhibition of HIV-1 LTR-mediated transcription (in words) (HIV-1 LTR promoter)	disk susceptibility of E. coli (diameter of the inhibition area) [4]	disk susceptibility of S. aureus (diameter of the inhibition area) [5]	inhibition of HIV-1 replication (in words) (HIV-1 (NL4.3-Ren))	cellular toxicity (in words) (MT-2 cells)	EC50 [6]	RRE interaction by NMR chemical shift perturbation (in words) (RRE hairpin)	also measured
COc1cc(CCN)c(-c2ccc(-c3cc(CCN)c(O)c(CCN)c3)c(OC)c2)c(CCN)c1 [IIS-358, 2″,3,5,6″-Tetrakis(2-aminoethyl)-2′,4″-dimethoxy-(1,1′:4′,1″-terphenyl)-4-ol chlorhydrate]	808 ± 462 µM	> 100 µM	> 100 µM	inhibited transcription of the reporter gene	inactive	inactive	–	–	–	–	Kd ([1]; 25° C., pH 6.3, high affinity site when two-site model, JB-399 and IIS-530: ligand range 0.1-25 μM, read-out: Kd(RRE)): 13 ± 9 µM; Kd(RREc)/Kd(RRE) (RREc hairpin; 25° C., pH 6.3): 1.9; Kd(TARc)/Kd(RRE) (TARc hairpin; 25° C., pH 6.3): 6.0
COc1cc(CCN)c(-c2cc(C)c(-c3cc(CCN)c(OCc4ccccc4)c(CCN)c3)c(C)c2)c(CCN)c1 [IIS-375, 2,2′,2″,2′″-[4″-(Benzyloxy)-4-methoxy-3′,5′-dimethyl-(1,1′:4′,1″-terphenyl)-2,3″,5″,6-tetrayl]tetraethanamine chlorhydrate]	32.2 ± 2.3 µM	24.8 µM	> 100 µM	–	–	–	inhibited HIV-1 replication	no cellular toxicity	21.4 µM	–	–
COc1cc(CCN)c(-c2cc(C)c(-c3cc(CCN)c(O)c(CCN)c3)c(C)c2)c(CCN)c1 [IIS-420, 2″,3,5,6″-Tetrakis(2-aminoethyl)-4″-methoxy-2′,6′-dimethyl-(1,1′:4′,1″-terphenyl)-4-ol chlorhydrate]	–	3.4 µM	> 100 µM	inhibited transcription of the reporter gene	–	–	inhibited HIV-1 replication	no cellular toxicity	5 µM	greatest RNA chemical shift variations	IC50 [2, 9]: 6.8 µM; IC50 (RRE-Rev; Human immunodeficiency virus 1, read-out: IC50 (RRE-Rev), pCMV-Rev 20 ng, pDM628 500 ng/well): 10.4 ± 2.4 µM; IC50 (RRE-Rev; Human immunodeficiency virus 1, read-out: IC50 (RRE-Rev), pCMV-Rev 200 ng, pDM628 500 ng/well): 21.4 ± 6.3 µM; IC50 (RRE-Rev; Human immunodeficiency virus 1, read-out: IC50 (RRE-Rev), pCMV-Rev 500 ng, pDM628 500 ng/well): 50 to 100 µM; IC50 (RRE-Rev; Human immunodeficiency virus 1, read-out: IC50 (Rev-mediated transport of RRE-containing RNA), depends on concentration of Rev-encoding plasmid): 10.4 to 21.4 µM
CCc1cc(-c2c(CCN)cc(OC)cc2CCN)ccc1-c1cc(CCN)c(OCc2ccccc2)c(CCN)c1 [IIS-758, 2,2′,2″,2′″-[4″-(Benzyloxy)-3′-ethyl-4-methoxy-(1,1′:4′,1″-terphenyl)-2,3″,5″,6-tetrayl]tetraethanamine chlorhydrate]	78.1 ± 6.5 µM	32.3 µM	> 100 µM	inhibited transcription of the reporter gene	–	–	inhibited HIV-1 replication	no cellular toxicity	17 µM	–	Kd [1, 10]: 16.7 ± 1.6 µM; Kd(RREc)/Kd(RRE) (RREc hairpin; 25° C., pH 7.4): 1.3; Kd(TARc)/Kd(RRE) (TARc hairpin; 25° C., pH 7.4): 2.0
CCc1cc(-c2c(CCN)cc(OC)cc2CCN)cc(CC)c1-c1cc(CCN)c(OCc2ccccc2)c(CCN)c1 [IIS-771, 2,2′,2″,2′″-(4″-(benzyloxy)-3′,5′-diethyl-4-methoxy-[1,1′:4′,1″-terphenyl]-2,3″,5″,6-tetrayl)tetraethanamine]	77.2 ± 15.5 µM	42.6 µM	> 100 µM	–	–	–	inhibited HIV-1 replication	no cellular toxicity	> 100 µM	–	Kd [1, 10]: 17.6 ± 1.8 µM; Kd(RREc)/Kd(RRE) (RREc hairpin; 25° C., pH 7.4): 1.0; Kd(TARc)/Kd(RRE) (TARc hairpin; 25° C., pH 7.4): 1.7
NCCc1cc(-c2cc(CCN)c(O)c(CCN)c2)cc(CCN)c1O [JB-391, 3,3′,5,5′-tetrakis(2-aminoethyl)-[1,1′-biphenyl]-4,4′-diol]	–	50 to 100 µM	> 100 µM	–	inactive	inactive	–	–	> 100 µM	unspecific	IC50 [2, 9]: 7.7 µM
NC[C@@H]1O[C@H](O[C@H]2[C@@H](O)[C@H](O[C@@H]3[C@@H](O)[C@H](N)C[C@H](N)[C@H]3O[C@H]3O[C@H](CN)[C@@H](O)[C@H](O)[C@H]3N)O[C@@H]2CO)[C@H](N)[C@@H](O)[C@@H]1O [Neomycin B, neomycin B, reference compound]	–	–	–	–	15.2 ± 2.1	12.8 ± 1.9	–	–	–	unspecific	Kd ([1]; higher affinity site, read-out: equilibrium dissociation constant Kd (RRE)): 2.4 ± 1.1 µM; Kd(RREc)/Kd(RRE) (RREc hairpin): 0.9; Kd(TARc)/Kd(RRE) (TARc hairpin): 2.3; Ki ([2]; calculated from IC50, assuming one ligand molecule displaces frevp, read-out: Ki inhibition constant): 2 ± 0.2 µM; EC50 (HIV-1 (NL4.3-Ren); HIV-1 infection assay, 48 h post-infection): > 100 µM; CC50 (MT-2 cells; 48 h, CellTiter Glo, read-out: CC50 (celular viability)): > 100 µM

Source: patent US9586943B2, “Bilaterally-substituted tricyclic compounds for the treatment of human immunodeficiency virus type-1 (HIV-1) infection and other diseases” (CENTRO DE INVESTIGACIÓN PRINCIPE FELIPE, priority 2013, dated 2017)
